Measured values from patent US11834450B2, “Compounds having ((3-nitrophenyl)sulfonyl)acetamide as BCL-2 inhibitors” (Eil Therapeutics, Inc., priority 2021, dated 2023).
pIC50: −log10 of the molar value. Where two headings read alike, the source gives them in different places.

Key:
MOLT-4 cells = experiment: Cell viability assay MOLT-4 (CellTiter-Glo); type: cell-based; settings: Homo sapiens, read-out: MOLT-4 (CC50 code)
Method: (§1) Assay Condition: Used culture medium for HEK293-DMEM (PanEco, Cat #C420), for the rest of the cell lines—culture medium RPMI-1640 (PanEco, Cat #C363).
(§2) Assay Procedure: Compounds were prepared as 200× stocks with serial dilution in 100% DMSO with a final concentration of 1×. Dispersed 40 μl in 384-well plates at a concentration of 2000 cells per well for HEK293 and at a concentration of 4000 cells per well for the rest of the cell lines using a robotic station Biomek (Beckman). Before adding compounds, the cells were incubated at 37° C. (HEK293 were incubated for a day before adding compounds).
(§3) A dilution plate was prepared by pouring 78 μl of the appropriate culture medium using a robotic station Biomek (Beckman). Sequentially, using a robotic station, 2 μl of substances were taken and added to 78 μl of culture medium (dilution of compounds 40×). Took from there 10 μl and added to the plates to the cells (dilution of compounds 5×). The plates were incubated for 3 days at a temperature 37° C. After 3 days, 10 μl of CellTiter-Glo (Promega) was added to the cells and the luminescence was measured.

[1] = Cell viability assay HEK293 (CellTiter-Glo); type: cell-based; settings: human, HEK293 cells, read-out: HEK293 (CC50 code)
Method: as §1, §2, §3

BCL-2 = target: T1, BCL-2 (Homo sapiens, UniProt P10415); experiment: BCL-2 TR-FRET Assay (primary PPI inhibition); type: binding; settings: 60 min incubation; read-out: BCL2 (IC50 code, BCL-2 TR-FRET)
T1 construct: purchased BPS Bioscience #50222

RS4-11 cells = experiment: Cell viability assay RS4-11 (CellTiter-Glo); type: cell-based; settings: Homo sapiens, read-out: RS4-11 (CC50 code)
Method: as §1, §2, §3

BCL-XL = target: T2, BCL-XL (Homo sapiens, UniProt Q07817); experiment: BCL-XL TR-FRET Assay (primary PPI inhibition); type: binding; settings: 60 min incubation; read-out: BCLxL (IC50 code, BCL-XL TR-FRET)
T2 construct: purchased BPS Bioscience #50223
Method: BCL-XL TR-FRET Assay (BPS Bioscience, #50223) Assay Condition: The following assay concentrations and times were used: 10.5 ng BCL-XL, 5 ul of 1:100 anti-His Tb-labeled donor, 5 ul of 1:100 Dye-labeled acceptor, 5 ul of 1:80 BCL-XL Peptide Ligand, and 2 ul of test compound, with 60 min incubation time. The results of the assay were read using a Clariostar (BMG Labtech) plate reader with the following parameters: TR FRET, 340 ex/620 and 665 em; 60 μsec Delay; and 500 μsec integration.

[2] = 72 h, MOLT-4 cells, 3 days, CellTiter-Glo
[3] = 72 h, RS4-11 cells, 3 days, CellTiter-Glo

T2 sequence (Q07817 whole entry): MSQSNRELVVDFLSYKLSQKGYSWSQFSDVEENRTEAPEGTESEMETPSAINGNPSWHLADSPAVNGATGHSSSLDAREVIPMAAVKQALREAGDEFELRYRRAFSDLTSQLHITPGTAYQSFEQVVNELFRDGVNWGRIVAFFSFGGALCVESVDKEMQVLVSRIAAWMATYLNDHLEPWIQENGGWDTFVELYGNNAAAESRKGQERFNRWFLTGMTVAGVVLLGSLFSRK
T1 sequence (P10415 whole entry): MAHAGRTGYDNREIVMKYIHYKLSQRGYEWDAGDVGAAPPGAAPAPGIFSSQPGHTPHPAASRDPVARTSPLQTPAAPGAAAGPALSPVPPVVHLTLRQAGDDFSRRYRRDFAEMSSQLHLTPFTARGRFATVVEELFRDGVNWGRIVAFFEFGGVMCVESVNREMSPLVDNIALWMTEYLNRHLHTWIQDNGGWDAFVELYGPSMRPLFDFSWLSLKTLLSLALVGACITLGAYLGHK

| SMILES | CC50 (MOLT-4 cells; MOLT-4, 72 h) [µM] | CC50 at 3 days [1] [µM] | pIC50 (BCL-2) | CC50 (RS4-11 cells; RS4-11, 72 h) [µM] | pIC50 (BCL-XL) | CC50 (MOLT-4 cells; [2]) [µM] | CC50 (RS4-11 cells; [3]) [µM] |
| --- | --- | --- | --- | --- | --- | --- | --- |
| O=C(NS(=O)(=O)c1ccc(NCC2CCOCC2)c([N+](=O)[O-])c1)c1ccc(N2CCC(CN3CC4(CCCC4)C3c3ccccc3)CC2)cc1Oc1cnc2[nH]ccc2c1 (centres unmarked) [Compound 27, N-[3-nitro-4-(tetrahydropyran-4-ylmethylamino)phenyl]sulfonyl-4-[4-[(3-phenyl-2-azaspiro[3.4]octan-2-yl)methyl]-1-piperidyl]-2-(1H-pyrrolo[2,3-b]pyridin-5-yloxy)benzamide] | 2 to 10 | > 25 | < 7.30 | > 0.2 | 5.40 to 5.70 | – | – |
| O=C(NS(=O)(=O)c1ccc(NCC2CCOCC2)c([N+](=O)[O-])c1)c1ccc(N2CCN(C(c3ccccc3)c3ccccc3)CC2)cc1Oc1cnc2[nH]ccc2c1 [Compound 17, 4-(4-benzhydrylpiperazin-1-yl)-N-[3-nitro-4-(tetrahydropyran-4-ylmethylamino)phenyl]sulfonyl-2-(1H-pyrrolo[2,3-b]pyridin-5-yloxy)benzamide] | – | > 25 | < 7.30 | – | < 5.40 | > 10 | > 0.2 |
| O=C(NS(=O)(=O)c1ccc(NCCCN2CCOCC2)c([N+](=O)[O-])c1)c1ccc(N2CCC(CN3CCCCC3c3ccc(Cl)cc3)CC2)cc1Oc1cnc2[nH]ccc2c1 (centres unmarked) [Compound 73, 4-[4-[[2-(4-chlorophenyl)-1-piperidyl]methyl]-1-piperidyl]-N [4-(3-morpholinopropylamino)-3-nitro-phenyl]sulfonyl-2-(1H-pyrrolo[2,3-b]pyridin-5-yloxy)benzamide] | – | 10 to 25 | 7.30 to 8.00 | – | 5.40 to 5.70 | 2 to 10 | > 0.2 |
| O=C(NS(=O)(=O)c1ccc(NCC2CCOCC2)c([N+](=O)[O-])c1)c1ccc(N2CCN(C(c3ccccc3)c3ccc(F)cc3)CC2)cc1Oc1ccc2[nH]ccc2c1 (centres unmarked) [Compound 12, 4-[4-[(4-fluorophenyl)-phenyl-methyl]piperazin-1-yl]-2-(1H-indol-5-yloxy)-N-[3-nitro-4-(tetrahydropyran-4-ylmethylamino)phenyl]sulfonyl-benzamide] | – | > 25 | < 7.30 | – | < 5.40 | > 10 | > 0.2 |
| O=C(NS(=O)(=O)c1ccc(NCC2CCOCC2)c([N+](=O)[O-])c1)c1ccc(N2CCN(C[C@@H]3CC(F)(F)CN3c3ccc(Cl)cc3)CC2)cc1Oc1cnc2[nH]ccc2c1 [Compound 81, 4-[4-[[(2S)-1-(4-chlorophenyl)-4,4-difluoro-pyrrolidin-2-yl]methyl]piperazin-1-yl]-N-[3-nitro-4-(tetrahydropyran-4-ylmethylamino)phenyl]sulfonyl-2-(1H-pyrrolo[2,3-b]pyridin-5-yloxy)benzamide] | – | 10 to 25 | – | – | – | 2 to 10 | > 0.2 |
| O=C(NS(=O)(=O)c1ccc(NCC2CCOCC2)c([N+](=O)[O-])c1)c1ccc(N2CCN(C(c3ccccc3)c3ccc(Cl)cc3)CC2)cc1Oc1ccc2[nH]ccc2c1 (centres unmarked) [Compound 14, 4-[4-[(4-chlorophenyl)-phenyl-methyl]piperazin-1-yl]-2-(1H-indol-5-yloxy)-N-[3-nitro-4-(tetrahydropyran-4-ylmethylamino)phenyl]sulfonyl-benzamide] | – | – | < 7.30 | – | – | – | – |
| O=C(NS(=O)(=O)c1ccc(NCC2CCOCC2)c([N+](=O)[O-])c1)c1ccc(N2CCC(CN3CCCCC3c3ccc(Cl)cc3)CC2)cc1Oc1cncc(CO)c1 (centres unmarked) [Compound 64, 4-[4-[[2-(4-chlorophenyl)-1-piperidyl]methyl]-1-piperidyl]-2-[[5-(hydroxymethyl)-3-pyridyl]oxy]-N-[3-nitro-4-(tetrahydropyran-4-ylmethylamino)phenyl]sulfonyl-benzamide] | – | 10 to 25 | < 7.30 | – | < 5.40 | > 10 | > 0.2 |
| O=C(NS(=O)(=O)c1ccc(NCC2CCOCC2)c([N+](=O)[O-])c1)c1ccc(N2CCC(CN3C(=O)C4(CCCC4)C3c3ccc(Cl)cc3)CC2)cc1Oc1ccc2[nH]ccc2c1 (centres unmarked) [Compound 10, 4-[4-[[1-(4-chlorophenyl)-3-oxo-2-azaspiro[3.4]octan-2-yl]methyl]-1-piperidyl]-2-(1H-indol-5-yloxy)-N-[3-nitro-4-(tetrahydropyran-4-ylmethylamino)phenyl]sulfonyl-benzamide] | > 10 | ≤ 10 | < 7.30 | > 0.2 | – | – | – |
| O=C1CC[C@]2(c3ccc(Cl)cc3)C[C@@]2(CN2CCN(c3ccc(C(=O)NS(=O)(=O)c4ccc(NCC5CCOCC5)c([N+](=O)[O-])c4)c(Oc4cnc5[nH]ccc5c4)c3)CC2)C1 [Compound 77, 4-[4-[[(1R,6R)-6-(4-chlorophenyl)-3-oxo-norcaran-1-yl]methyl]piperazin-1-yl]-N-[3-nitro-4-(tetrahydropyran-4-ylmethylamino)phenyl]sulfonyl-2-(1H-pyrrolo[2,3-b]pyridin-5-yloxy)benzamide] | – | 10 to 25 | < 7.30 | – | < 5.40 | 2 to 10 | > 0.2 |
| O=C(NS(=O)(=O)c1ccc(NCC2CCOCC2)c([N+](=O)[O-])c1)c1ccc(N2CCC(CN3CCCCC3c3ccc(Cl)cc3)CC2)cc1Oc1cccc(F)c1 (centres unmarked) [Compound 62, 4-[4-[[2-(4-chlorophenyl)-1-piperidyl]methyl]-1-piperidyl]-2-(3-fluorophenoxy)-N-[3-nitro-4-(tetrahydropyran-4-ylmethylamino)phenyl]sulfonyl-benzamide] | – | 10 to 25 | < 7.30 | – | ≥ 5.70 | 2 to 10 | > 0.2 |
| CC1=CC[C@@H](CN2CCN(c3ccc(C(=O)NS(=O)(=O)c4ccc(NCC5CCOCC5)c([N+](=O)[O-])c4)c(Oc4cnc5[nH]ccc5c4)c3)CC2)[C@@H](c2ccc(Cl)cc2)C1 [Compound 71, 4-[4-[[(1R,6S)-6-(4-chlorophenyl)-4-methyl-cyclohex-3-en-1-yl]methyl]piperazin-1-yl]-N-[3-nitro-4-(tetrahydropyran-4-ylmethylamino)phenyl]sulfonyl-2-(1H-pyrrolo[2,3-b]pyridin-5-yloxy)benzamide] | – | – | 7.30 to 8.00 | – | < 5.40 | – | – |
| O=C(NS(=O)(=O)c1ccc(NCC2CCOCC2)c([N+](=O)[O-])c1)c1ccc(N2CCN(C(c3ccc(F)cc3)c3ccc(F)cc3)CC2)cc1Oc1ccc2[nH]ccc2c1 [Compound 16, 4-[4-[bis(4-fluorophenyl)methyl]piperazin-1-yl]-2-(1H-indol-5-yloxy)-N-[3-nitro-4-(tetrahydropyran-4-ylmethylamino)phenyl]sulfonyl-benzamide] | – | > 25 | < 7.30 | – | < 5.40 | > 10 | > 0.2 |
| CC1=CC[C@@H](c2ccc(Cl)cc2)[C@H](CN2CCN(c3ccc(C(=O)NS(=O)(=O)c4ccc(NCC5CCOCC5)c([N+](=O)[O-])c4)c(Oc4cnc5[nH]ccc5c4)c3)CC2)C1 [Compound 60, 4-[4-[[(1R,6R)-6-(4-chlorophenyl)-3-methyl-cyclohex-3-en-1-yl]methyl]piperazin-1-yl]-N-[3-nitro-4-(tetrahydropyran-4-ylmethylamino)phenyl]sulfonyl-2-(1H-pyrrolo[2,3-b]pyridin-5-yloxy)benzamide] | – | – | < 7.30 | – | < 5.40 | – | – |
| CCCC(c1ccc(Br)cc1)N1CCN(c2ccc(C(=O)NS(=O)(=O)c3ccc(NCC4CCOCC4)c([N+](=O)[O-])c3)c(Oc3ccc4[nH]ccc4c3)c2)CC1 (centres unmarked) [Compound 15, 4-[4-[1-(4-bromophenyl)butyl]piperazin-1-yl]-2-(1H-indol-5-yloxy)-N-[3-nitro-4-(tetrahydropyran-4-ylmethylamino)phenyl]sulfonyl-benzamide] | – | – | < 7.30 | – | < 5.40 | – | – |
| O=C(NS(=O)(=O)c1ccc(NCC2CCOCC2)c([N+](=O)[O-])c1)c1ccc(N2CCN(C[C@H]3Cc4ccccc4CN3C(=O)c3cccs3)CC2)cc1Oc1cnc2[nH]ccc2c1 [Compound 34, N-[3-nitro-4-(tetrahydropyran-4-ylmethylamino)phenyl]sulfonyl-2-(1H-pyrrolo[2,3-b]pyridin-5-yloxy)-4-[4-[[(3R)-2-(thiophene-2-carbonyl)-3,4-dihydro-1H-isoquinolin-3-yl]methyl]piperazin-1-yl]benzamide] | – | – | 7.30 to 8.00 | – | 5.40 to 5.70 | – | – |
